# Measured values taken from ChEMBL document CHEMBL5376015, “Kinase inhibitor macrocycles: a perspective on limiting conformational flexibility when targeting the kinome with small molecules” (RSC Med Chem, 2024).
# Tests used:
# in vitro [1] = conditions: human, human liver microsomes
# Description: Clearance in human liver microsomes
# physchem [2] = conditions: octanol/water
# Description: Lipophilicity, logD of the compound
# [3] = target: T1, Tyrosine-protein kinase JAK3 (Homo sapiens, UniProt P52333); assay: Inhibition of human recombinant JAK3
# T1 sequence (P52333 whole entry): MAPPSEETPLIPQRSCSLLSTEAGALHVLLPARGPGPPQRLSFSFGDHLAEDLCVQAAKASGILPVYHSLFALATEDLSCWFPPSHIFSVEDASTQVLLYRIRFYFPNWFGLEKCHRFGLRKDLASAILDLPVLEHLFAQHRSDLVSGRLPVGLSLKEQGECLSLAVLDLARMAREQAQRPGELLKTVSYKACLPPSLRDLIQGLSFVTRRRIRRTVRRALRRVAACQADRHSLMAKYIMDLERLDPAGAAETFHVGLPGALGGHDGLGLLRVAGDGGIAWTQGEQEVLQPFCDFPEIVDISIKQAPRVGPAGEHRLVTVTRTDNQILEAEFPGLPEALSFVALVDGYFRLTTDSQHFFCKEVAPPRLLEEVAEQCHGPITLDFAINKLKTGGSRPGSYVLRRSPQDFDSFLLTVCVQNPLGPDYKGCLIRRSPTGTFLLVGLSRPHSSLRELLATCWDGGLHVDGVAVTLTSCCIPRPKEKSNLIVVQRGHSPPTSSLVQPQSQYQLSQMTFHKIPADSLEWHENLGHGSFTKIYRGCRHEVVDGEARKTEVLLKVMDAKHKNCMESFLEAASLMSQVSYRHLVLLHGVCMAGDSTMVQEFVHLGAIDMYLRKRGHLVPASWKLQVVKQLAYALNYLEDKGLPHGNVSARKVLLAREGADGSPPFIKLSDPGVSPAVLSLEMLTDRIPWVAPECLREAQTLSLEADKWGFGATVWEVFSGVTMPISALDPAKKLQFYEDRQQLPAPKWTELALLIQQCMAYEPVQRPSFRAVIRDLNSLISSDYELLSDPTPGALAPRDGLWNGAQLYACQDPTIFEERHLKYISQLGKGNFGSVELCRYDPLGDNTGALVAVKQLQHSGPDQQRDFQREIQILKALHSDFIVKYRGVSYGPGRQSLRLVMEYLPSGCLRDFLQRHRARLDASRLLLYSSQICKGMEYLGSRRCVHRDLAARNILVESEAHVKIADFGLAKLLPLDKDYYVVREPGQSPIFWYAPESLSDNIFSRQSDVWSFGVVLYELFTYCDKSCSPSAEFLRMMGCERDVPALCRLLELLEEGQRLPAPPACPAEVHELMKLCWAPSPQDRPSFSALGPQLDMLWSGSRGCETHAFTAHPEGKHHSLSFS
# [4] = target: Non-receptor tyrosine-protein kinase TYK2 (Homo sapiens, UniProt P29597); assay: Inhibition of human recombinant TYK2
# [5] = target: Cyclin-dependent kinase 2 (Homo sapiens, UniProt P24941); assay: Inhibition of human recombinant CDK2 by Kinomescan method
# [6] = target: Tyrosine-protein kinase JAK1 (Homo sapiens, UniProt P23458)
# Description: Inhibition of human recombinant JAK1
# [7] = target: T2, Receptor-type tyrosine-protein kinase FLT3 (Homo sapiens, UniProt P36888)
# T2 sequence (P36888 whole entry): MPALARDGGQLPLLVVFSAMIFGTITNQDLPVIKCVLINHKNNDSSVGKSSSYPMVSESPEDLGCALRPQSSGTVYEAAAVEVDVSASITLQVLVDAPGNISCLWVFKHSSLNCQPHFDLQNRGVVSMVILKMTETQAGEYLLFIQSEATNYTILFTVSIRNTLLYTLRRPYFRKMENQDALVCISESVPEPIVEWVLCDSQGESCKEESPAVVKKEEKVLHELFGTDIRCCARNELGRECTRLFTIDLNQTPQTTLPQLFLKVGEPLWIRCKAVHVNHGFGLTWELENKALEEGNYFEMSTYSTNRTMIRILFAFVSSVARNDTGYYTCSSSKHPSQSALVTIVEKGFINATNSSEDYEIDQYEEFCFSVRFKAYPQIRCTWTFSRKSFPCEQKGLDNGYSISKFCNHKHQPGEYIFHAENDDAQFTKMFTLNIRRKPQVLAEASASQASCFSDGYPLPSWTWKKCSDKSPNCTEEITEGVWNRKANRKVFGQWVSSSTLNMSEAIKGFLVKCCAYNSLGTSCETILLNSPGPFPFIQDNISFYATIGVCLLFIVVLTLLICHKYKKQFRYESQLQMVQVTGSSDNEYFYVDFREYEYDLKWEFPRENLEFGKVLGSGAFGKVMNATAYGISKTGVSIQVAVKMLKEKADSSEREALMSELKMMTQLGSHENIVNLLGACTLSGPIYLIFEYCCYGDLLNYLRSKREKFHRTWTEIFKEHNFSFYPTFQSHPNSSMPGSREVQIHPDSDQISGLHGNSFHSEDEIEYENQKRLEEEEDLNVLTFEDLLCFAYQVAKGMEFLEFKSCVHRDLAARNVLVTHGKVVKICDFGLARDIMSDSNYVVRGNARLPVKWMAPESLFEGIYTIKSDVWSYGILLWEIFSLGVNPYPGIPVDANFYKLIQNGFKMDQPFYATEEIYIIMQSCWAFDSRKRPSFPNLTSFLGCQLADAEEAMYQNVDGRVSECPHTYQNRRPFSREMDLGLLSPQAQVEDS
# Description: Inhibition of recombinant FLT3 in human MV4-11 cells assessed as reduction in ERK phosphorylation by Western blotting analysis
# [8] = target: Tyrosine-protein kinase JAK2 (Homo sapiens, UniProt O60674)
# Description: Inhibition of human recombinant JAK2
# in vitro [9] = conditions: PAMPA, pH 7.4
# Description: Permeability of compound at pH 7.4 by PAMPA assay
# BaF3 [10] = assay: Growth inhibition of mouse BaF3 cells harboring JAK2 V617F mutant assessed as reduction in cell viability incubated for 72 hrs by MTT assay; assay type: functional
# Cytochrome P450 3A4 [11] = target: T3, Cytochrome P450 3A4 (Homo sapiens, UniProt P08684)
# Description: Inhibition of CYP3A4 in human liver microsomes using testosterone as substrate by LC-MS/MS analysis
# Cytochrome P450 2D6 [12] = target: T4, Cytochrome P450 2D6 (Homo sapiens, UniProt P10635)
# Description: Inhibition of CYP2D6 in human liver microsomes using dextromethorphan as substrate by LC-MS/MS analysis
# physchem [13] = conditions: PBS, pH 7
# Description: Aqueous solubility of the compound in PBS at pH 7
# [14] = target: ALK tyrosine kinase receptor (Homo sapiens, UniProt Q9UM73, L1196M)
# Description: Binding affinity to ALK L1196M mutant (unknown origin) assessed as inhibition constant
# [15] = target: ALK tyrosine kinase receptor (Homo sapiens, UniProt Q9UM73)
# Description: Binding affinity to ALK (unknown origin) assessed as inhibition of constant
# [16] = Plasma protein binding in mouse; assay type: ADME, cell-free; conditions: read-out: PPB (converted)
# [17] = Kinetic solubility of compound at pH 7; assay type: physicochemical; conditions: buffer, read-out: Kinetic_solubility
# in vitro [18] = conditions: mouse, mouse liver microsomes
# Description: Half life in mouse liver microsomes
# in vitro [19] = conditions: human, human liver microsomes; remark: listed apart in the source
# Description: Half life in human liver microsome
# NIH3T3 [20] = assay: Antiproliferative activity against mouse NIH3T3 cells expressing TRKC G623R mutant assessed as inhibition of cell growth measured after 72 hrs by CCK-8 assay; assay type: functional
# BaF3 [21] = assay: cells; conditions: Mus musculus, BaF3, 72 h
# Description: Antiproliferative activity against mouse BaF3 cells harbouring wild type TRKC assessed as cell growth inhibition incubated for 3 days by CCK8 method
# BaF3 [22] = assay: cells; conditions: Mus musculus, BaF3, 72 h; remark: listed apart in the source
# Description: Antiproliferative activity against mouse BaF3 cells harbouring TRKA G595R mutant assessed as cell growth inhibition incubated for 3 days by CCK8 method
# BaF3 [23] = assay: cells; conditions: Mus musculus, BaF3, 72 h; remark: listed apart in the source
# NIH3T3 [24] = assay: Antiproliferative activity against mouse NIH3T3 cells harbouring TRKA V573M mutant assessed as cell growth inhibition incubated for 3 days by CCK8 method; assay type: functional; conditions: NIH3T3, 72 h, time 3 day
# NIH3T3 [25] = assay: Antiproliferative activity against mouse NIH3T3 cells harbouring ETV6-TRKC G696A mutant incubated for 3 days by CCK8 method; assay type: functional; conditions: NIH3T3, 72 h, time 3 day
# NIH3T3 [26] = assay: Antiproliferative activity against mouse NIH3T3 cells expressing wild type TRKC […] assessed as inhibition of cell growth measured after 72 hrs by CCK-8 assay; assay type: functional
# NIH3T3 [27] = assay: cells; conditions: Mus musculus
# Description: Antiproliferative activity against mouse NIH3T3 cells transfected with wild type TRKA assessed as cell growth inhibition
# BaF3 [28] = assay: cells; conditions: Mus musculus, BaF3, 72 h; remark: listed apart in the source
# Description: Antiproliferative activity against mouse BaF3 cells harbouring ETV6-TRKC G623E mutant incubated for 3 days by CCK8 method
# NIH3T3 [29] = assay: Antiproliferative activity against mouse NIH3T3 cells expressing TRKA G667S mutant assessed as inhibition of cell growth measured after 72 hrs by CCK-8 assay; assay type: functional
# Cytochrome P450 2D6 [30] = target: T4, Cytochrome P450 2D6; remark: listed apart in the source
# Description: Inhibition of CYP2D6 (unknown origin)
# Cytochrome P450 3A4 [31] = target: T3, Cytochrome P450 3A4; remark: listed apart in the source
# Description: Inhibition of CYP3A4 (unknown origin)
# NIH3T3 [32] = assay: Antiproliferative activity against mouse NIH3T3 cells expressing TRKA F589L mutant assessed as inhibition of cell growth measured after 72 hrs by CCK-8 assay; assay type: functional
# NIH3T3 [33] = assay: Antiproliferative activity against mouse NIH3T3 cells harbouring TRKC G595R mutant assessed as cell growth inhibition incubated for 3 days by CCK8 method; assay type: functional; conditions: NIH3T3, 72 h, time 3 day
# Sequence of Non-receptor tyrosine-protein kinase TYK2 (P29597 whole entry): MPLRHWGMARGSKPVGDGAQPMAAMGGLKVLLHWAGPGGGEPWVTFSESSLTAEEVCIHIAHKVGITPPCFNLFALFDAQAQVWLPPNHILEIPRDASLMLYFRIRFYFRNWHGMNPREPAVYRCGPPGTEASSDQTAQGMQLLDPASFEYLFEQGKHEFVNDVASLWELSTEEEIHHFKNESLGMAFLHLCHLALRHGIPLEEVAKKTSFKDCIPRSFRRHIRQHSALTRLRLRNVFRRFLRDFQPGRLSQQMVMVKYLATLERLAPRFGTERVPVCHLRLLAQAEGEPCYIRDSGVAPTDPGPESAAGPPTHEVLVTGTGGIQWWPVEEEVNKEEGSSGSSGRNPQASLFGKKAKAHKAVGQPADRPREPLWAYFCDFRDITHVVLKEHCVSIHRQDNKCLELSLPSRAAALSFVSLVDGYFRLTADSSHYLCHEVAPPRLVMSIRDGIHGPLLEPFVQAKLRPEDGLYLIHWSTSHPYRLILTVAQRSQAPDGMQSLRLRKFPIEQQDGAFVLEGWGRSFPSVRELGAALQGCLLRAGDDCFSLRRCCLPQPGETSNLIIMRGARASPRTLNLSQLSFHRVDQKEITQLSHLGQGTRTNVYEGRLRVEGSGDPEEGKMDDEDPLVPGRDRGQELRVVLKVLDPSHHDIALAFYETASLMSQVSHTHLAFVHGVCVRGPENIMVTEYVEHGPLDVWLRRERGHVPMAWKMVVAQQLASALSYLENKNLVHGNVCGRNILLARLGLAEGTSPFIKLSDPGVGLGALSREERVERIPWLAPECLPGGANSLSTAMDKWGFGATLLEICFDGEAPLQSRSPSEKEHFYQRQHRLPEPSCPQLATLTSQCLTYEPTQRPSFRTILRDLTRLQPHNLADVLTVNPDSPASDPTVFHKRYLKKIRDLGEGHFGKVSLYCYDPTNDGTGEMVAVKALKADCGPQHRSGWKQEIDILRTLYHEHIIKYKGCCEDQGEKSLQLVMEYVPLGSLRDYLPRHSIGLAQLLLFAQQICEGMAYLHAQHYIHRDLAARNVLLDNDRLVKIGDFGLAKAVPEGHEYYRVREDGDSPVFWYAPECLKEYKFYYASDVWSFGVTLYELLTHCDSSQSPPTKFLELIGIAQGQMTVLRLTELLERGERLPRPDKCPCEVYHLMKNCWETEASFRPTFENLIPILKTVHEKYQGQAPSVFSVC
# T4 sequence (P10635 whole entry): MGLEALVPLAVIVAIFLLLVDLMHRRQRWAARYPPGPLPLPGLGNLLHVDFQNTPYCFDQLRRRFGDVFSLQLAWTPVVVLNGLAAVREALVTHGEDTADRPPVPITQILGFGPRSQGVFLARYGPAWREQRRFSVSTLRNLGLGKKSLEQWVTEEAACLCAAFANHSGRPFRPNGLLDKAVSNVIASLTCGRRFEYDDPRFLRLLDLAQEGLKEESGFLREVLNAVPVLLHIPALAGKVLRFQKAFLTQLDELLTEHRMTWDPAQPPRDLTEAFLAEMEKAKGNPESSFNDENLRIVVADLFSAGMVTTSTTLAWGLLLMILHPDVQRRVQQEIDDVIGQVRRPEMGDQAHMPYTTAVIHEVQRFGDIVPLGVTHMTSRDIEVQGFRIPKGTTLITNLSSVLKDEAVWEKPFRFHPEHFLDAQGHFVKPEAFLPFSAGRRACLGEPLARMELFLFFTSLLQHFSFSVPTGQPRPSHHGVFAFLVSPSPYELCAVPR
# Sequence of Tyrosine-protein kinase JAK1 (P23458 whole entry): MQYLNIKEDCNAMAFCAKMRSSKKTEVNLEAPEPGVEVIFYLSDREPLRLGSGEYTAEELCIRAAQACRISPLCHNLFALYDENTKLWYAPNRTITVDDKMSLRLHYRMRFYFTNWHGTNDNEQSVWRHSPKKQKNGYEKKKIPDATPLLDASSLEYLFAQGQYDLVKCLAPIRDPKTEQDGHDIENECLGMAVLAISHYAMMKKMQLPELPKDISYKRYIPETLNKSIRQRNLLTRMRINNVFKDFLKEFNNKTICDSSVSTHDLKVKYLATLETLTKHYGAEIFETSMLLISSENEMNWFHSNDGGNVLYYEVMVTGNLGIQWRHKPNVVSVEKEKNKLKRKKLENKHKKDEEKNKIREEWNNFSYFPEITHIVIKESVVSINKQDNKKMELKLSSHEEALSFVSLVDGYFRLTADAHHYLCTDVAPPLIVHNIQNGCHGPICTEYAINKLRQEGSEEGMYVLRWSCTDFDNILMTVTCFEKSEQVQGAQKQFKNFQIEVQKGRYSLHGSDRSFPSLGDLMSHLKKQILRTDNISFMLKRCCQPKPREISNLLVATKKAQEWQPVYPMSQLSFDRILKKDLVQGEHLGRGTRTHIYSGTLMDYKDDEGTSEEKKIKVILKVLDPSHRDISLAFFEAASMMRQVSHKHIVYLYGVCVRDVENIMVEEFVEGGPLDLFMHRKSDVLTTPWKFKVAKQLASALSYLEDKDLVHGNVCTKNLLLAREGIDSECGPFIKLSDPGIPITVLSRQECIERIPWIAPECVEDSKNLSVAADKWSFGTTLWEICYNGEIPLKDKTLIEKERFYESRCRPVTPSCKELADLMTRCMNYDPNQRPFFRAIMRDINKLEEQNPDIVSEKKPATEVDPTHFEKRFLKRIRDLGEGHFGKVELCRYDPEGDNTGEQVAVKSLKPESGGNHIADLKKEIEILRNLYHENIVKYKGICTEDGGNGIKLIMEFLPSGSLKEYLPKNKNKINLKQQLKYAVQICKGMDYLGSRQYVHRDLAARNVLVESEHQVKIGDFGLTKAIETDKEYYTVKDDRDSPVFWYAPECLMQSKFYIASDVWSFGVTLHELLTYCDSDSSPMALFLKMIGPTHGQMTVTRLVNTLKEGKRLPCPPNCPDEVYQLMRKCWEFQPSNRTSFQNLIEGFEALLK
# T3 sequence (P08684 whole entry): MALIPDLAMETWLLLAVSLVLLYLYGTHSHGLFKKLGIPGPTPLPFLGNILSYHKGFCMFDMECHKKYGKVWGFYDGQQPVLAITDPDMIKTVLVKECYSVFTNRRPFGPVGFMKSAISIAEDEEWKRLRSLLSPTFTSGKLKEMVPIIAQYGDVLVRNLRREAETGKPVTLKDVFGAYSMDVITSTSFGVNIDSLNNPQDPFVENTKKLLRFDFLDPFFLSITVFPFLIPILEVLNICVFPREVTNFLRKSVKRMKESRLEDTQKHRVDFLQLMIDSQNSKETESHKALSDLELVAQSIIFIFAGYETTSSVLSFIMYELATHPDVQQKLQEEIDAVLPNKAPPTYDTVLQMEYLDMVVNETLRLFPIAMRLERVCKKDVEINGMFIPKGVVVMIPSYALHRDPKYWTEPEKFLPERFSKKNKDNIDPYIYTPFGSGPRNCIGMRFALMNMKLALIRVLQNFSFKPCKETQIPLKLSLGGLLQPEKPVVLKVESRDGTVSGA
# Sequence of Tyrosine-protein kinase JAK2 (O60674 whole entry): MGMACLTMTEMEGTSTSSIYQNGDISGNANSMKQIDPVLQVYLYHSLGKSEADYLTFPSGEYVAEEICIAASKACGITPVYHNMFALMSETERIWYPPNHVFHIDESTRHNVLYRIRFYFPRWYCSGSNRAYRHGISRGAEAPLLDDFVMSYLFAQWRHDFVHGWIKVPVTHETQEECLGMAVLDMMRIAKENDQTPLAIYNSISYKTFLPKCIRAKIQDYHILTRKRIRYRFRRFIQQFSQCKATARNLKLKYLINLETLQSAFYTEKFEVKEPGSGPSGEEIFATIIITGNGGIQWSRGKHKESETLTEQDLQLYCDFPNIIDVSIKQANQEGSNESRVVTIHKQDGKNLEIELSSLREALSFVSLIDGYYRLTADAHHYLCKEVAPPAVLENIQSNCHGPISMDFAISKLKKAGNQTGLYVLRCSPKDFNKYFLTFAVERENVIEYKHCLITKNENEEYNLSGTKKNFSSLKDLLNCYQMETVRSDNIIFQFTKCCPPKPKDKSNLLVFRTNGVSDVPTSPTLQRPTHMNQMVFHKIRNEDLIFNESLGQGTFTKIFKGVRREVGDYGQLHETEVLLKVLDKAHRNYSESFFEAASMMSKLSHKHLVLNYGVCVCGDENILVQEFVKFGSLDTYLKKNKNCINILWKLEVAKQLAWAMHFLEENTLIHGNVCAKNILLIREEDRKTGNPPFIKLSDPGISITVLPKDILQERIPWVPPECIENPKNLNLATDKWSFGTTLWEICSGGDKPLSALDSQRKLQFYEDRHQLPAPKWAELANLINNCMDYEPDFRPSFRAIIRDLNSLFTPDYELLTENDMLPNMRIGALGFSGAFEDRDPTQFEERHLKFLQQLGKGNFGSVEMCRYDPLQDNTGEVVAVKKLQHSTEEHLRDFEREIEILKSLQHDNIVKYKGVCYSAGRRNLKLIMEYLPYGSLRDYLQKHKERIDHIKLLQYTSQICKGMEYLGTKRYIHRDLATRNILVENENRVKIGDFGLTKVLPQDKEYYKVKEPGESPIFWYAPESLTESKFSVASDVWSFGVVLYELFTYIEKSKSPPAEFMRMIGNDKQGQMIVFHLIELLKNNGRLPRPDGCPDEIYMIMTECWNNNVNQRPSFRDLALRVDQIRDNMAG
smiles,measurement,setting,value
COc1ccc(F)cc1[C@@H](C)Oc1cc(-c2cnnn2C)cnc1N,microsomal CLint,in vitro [1],25 µL/min/mg
CNC(=O)c1ccc(F)cc1[C@@H](C)Oc1cc(-c2cn(C)nc2C)cnc1N,logD,physchem [2],3.7
same,microsomal CLint,in vitro [1],28 µL/min/mg
CNC(=O)c1ccc(F)cc1[C@@H](C)Oc1nc(-c2cccnc2OC)cnc1N,microsomal CLint,in vitro [1],76 µL/min/mg
Cc1nn(C)c2c1-c1cnc(N)c(c1)O[C@H](C)c1cc(F)ccc1C(=O)N(C)C2,microsomal CLint,in vitro [1],8.6 µL/min/mg
COc1ccc2cc1COC/C=C/COCc1cccc(c1)-c1ccnc(n1)N2,IC50,[3],1200 nM
same,IC50,[4],210 nM
same,IC50,[5],860 nM
same,IC50,[6],1900 nM
CN(C)CCN(C)c1ccc2cc1COC/C=C/COCc1cccc(c1)-c1ccnc(n1)N2,IC50,[4],71 nM
same,IC50,[5],88 nM
same,IC50,[7],31 nM
same,IC50,[8],77 nM
same,IC50,[6],3600 nM
COc1ccc2cc1COC/C=C/COCc1cc(ccc1OCCN1CCCC1)Nc1nccc-2n1,IC50,[3],890 nM
same,IC50,[4],180 nM
same,Papp,in vitro [9],10.1 ×10⁻⁶ cm/s
same,GI50,BaF3 [10],100 nM
same,IC50,[5],> 10000 nM
same,IC50,[7],92 nM
same,IC50,Cytochrome P450 3A4 [11],> 10000 nM
same,IC50,Cytochrome P450 2D6 [12],10000 nM
same,IC50,[8],19 nM
same,solubility,physchem [13],60.8 µg/mL
same,IC50,[6],> 10000 nM
OCCN1CCN(c2ccc3cc2COC/C=C/COCc2cccc(c2)-c2ccnc(n2)N3)CC1,IC50,[3],2500 nM
same,IC50,[4],160 nM
same,IC50,[5],3700 nM
same,IC50,[7],70 nM
same,IC50,[8],84 nM
same,IC50,[6],3100 nM
C[C@@H]1Oc2cc(cnc2N)-c2c(C#N)nn(C)c2CCCOc2ccc(F)cc21,logD,physchem [2],3.8
same,Ki,[14],0.62 nM
same,Ki,[15],< 0.1 nM
Cc1cnc2nc1-c1cccc(c1)COC/C=C/COCc1cc(ccc1OCCN1CCCC1)N2,IC50,[3],89 nM
same,IC50,[4],57 nM
same,GI50,BaF3 [10],180 nM
same,IC50,[7],19 nM
same,IC50,[8],7 nM
same,IC50,[6],1000 nM
C1=C2COC/C=C/COCc3cc(ccc3OCCN3CCCC3)Nc3nccc(n3)C(=C1)O2 [CT-1578],fraction unbound,[16],0.127
same,solubility kinetic,[17],> 250 µg/mL
same,half-life,in vitro [18],18 min
same,half-life,in vitro [19],> 60 min
O=C(Nc1cnn2ccc(N3CCC[C@@H]3c3cc(F)ccc3F)nc12)N1CC[C@H](O)C1 [LAROTRECTINIB],GI50,NIH3T3 [20],> 10000 nM
same,GI50,BaF3 [21],10.2 nM
same,GI50,BaF3 [22],1020 nM
same,GI50,BaF3 [23],3290 nM
same,GI50,NIH3T3 [24],1020 nM
same,GI50,NIH3T3 [25],172 nM
same,GI50,NIH3T3 [26],18.8 nM
same,GI50,NIH3T3 [27],5 nM
same,GI50,BaF3 [28],742 nM
same,GI50,NIH3T3 [29],70 nM
C[C@H]1Oc2cc(cnc2N)-c2c(nn(C)c2C#N)CN(C)C(=O)c2ccc(F)cc21 [LORLATINIB],microsomal CLint,in vitro [1],< 8 µL/min/mg
C1=N/C2=N/c3ccc(OCCN4CCCC4)c(c3)COC/C=C/COCc3cccc(c3)C(=C1)N2 [PACRITINIB],GI50,BaF3 [10],160 nM
same,IC50,[5],> 3900 nM
same,fraction unbound,[16],0.006
same,solubility kinetic,[17],> 150 µg/mL
same,half-life,in vitro [18],22 min
same,half-life,in vitro [19],> 60 min
same,IC50,Cytochrome P450 3A4 [11],> 5000 nM
same,IC50,Cytochrome P450 2D6 [12],5000 nM
same,IC50,Cytochrome P450 2D6 [30],> 5000 nM
same,solubility,physchem [13],> 150 µg/mL
same,IC50,Cytochrome P450 3A4 [31],> 5000 nM
C[C@@H]1CCc2ncc(F)cc2[C@H]2CCCN2c2ccn3ncc(c3n2)C(=O)N1 [SELITRECTINIB],GI50,NIH3T3 [20],45.5 nM
same,GI50,NIH3T3 [24],29 nM
same,GI50,NIH3T3 [25],17.5 nM
same,GI50,NIH3T3 [32],9 nM
same,GI50,NIH3T3 [33],7 nM
same,GI50,NIH3T3 [29],25 nM
CN1C/C=C/CCOc2cccc(c2)-c2ccnc(n2)Nc2cccc(c2)C1 [ZOTIRACICLIB],fraction unbound,[16],0.006
same,solubility kinetic,[17],71.8 µg/mL
same,half-life,in vitro [18],12 min
same,IC50,Cytochrome P450 3A4 [31],> 25000 nM
